From ChEMBL document CHEMBL1157975, “Diterpenoids from the roots of Euphorbia fischeriana” (J Nat Prod, 2006)
Values after ≈ are worked out from the molar mass of the structure shown.

Test system: Ramos
Experiment: Cytotoxicity against human Ramos B cells after 72 hrs by MTT assay
Type: functional, cell-based

| Structure (SMILES) | IC50 [µg/mL] |
| --- | --- |
| CCCCCCCCCC(=O)O[C@@]12C[C@@H](C)[C@]3(O)[C@@H](C=C(CO)C[C@@]4(O)C(=O)C(C)=C[C@@H]34)[C@@H]1C2(C)C | 0.0051 (≈ 0.0101 µM) |
| CC(=O)OCC1=C2[C@H]3O[C@]34CC[C@@H]3C(C)(C)CCC[C@@]3(C)[C@@H]4[C@H]3O[C@@]23OC1=O [17-ACETOXYJOLKINOLIDE B] | 0.023 (≈ 0.0592 µM) |
| CC(=O)O[C@@]12C[C@@H](C)[C@@]3(O)[C@@H](C=C(CO)C[C@]4(O)C(=O)C(C)=C[C@@H]34)[C@@H]1C2(C)C [PROSTRATIN] | 0.056 (≈ 0.143 µM) |
